Measurements taken from PMC8854719, “Phase 1A/1B dose-escalation and -expansion study to evaluate the safety, pharmacokinetics, food effects and antitumor activity of pamiparib in advanced solid tumours” (British Journal of Cancer, 2021).
“And” between values parts separate entries of the source, which are not always exact repeats. Equal values may be shown once.

What was measured:
[1] = Phase 1 portion of NCT03333915, patients in China; cited from earlier work
P-glycoprotein = test system: P-glycoprotein; set-up: method as in PMID 32652442; conditions: cited from earlier work
[2] = test system: BRCA1-mutant breast cancer xenograft model; set-up: method as in PMID 32652442; conditions: cited from earlier work
[3] = test system: epithelial ovarian cancer (EOC); assay: Tumour response and PFS per RECIST v1.1, EOC efficacy-evaluable population; type: in vivo, human
Method: Tumour response was evaluated by RECIST v1.1. For patients with ovarian cancer, tumour response was assessed per RECIST v1.1 and by Gynecologic Cancer Intergroup (GCIG) CA-125 criteria. Tumour response for patients with prostate cancer was assessed by Prostate Cancer Clinical Trials Working Group 2 (PCWG2) criteria. Objective response rate (ORR) was defined as the proportion of patients achieving a confirmed complete response (CR) or partial response (PR) on study treatment. Blood tumour antigens (e.g., carcinoembryonic antigen for colorectal cancer, CA-125 for ovarian cancer and prostate-specific antigen [PSA] for mCRPC) were assessed during screening, every 6 weeks after the first pamiparib dose in the first 12 months, and every 9 weeks thereafter.
Analyses of ORR (95% confidence interval [CI]) by investigator assessment were performed using predefined subgroups of the EOC population, including age group (<65 years versus ≥65 years), baseline ECOG performance status (0 versus 1), solid tumour stage (Stage III versus IV), BRCA/HRD status (germline BRCA mutation versus wild-type or unknown; germline or somatic BRCA mutation versus wild-type or unknown; HRD-positive versus negative or unknown), and platinum response status (platinum-sensitive versus platinum-resistant versus platinum-refractory).
The safety population comprised all patients in the dose-escalation and dose-expansion phases who received at least one dose of pamiparib (Supplementary Table S2). Patients in the safety analysis set for whom valid pamiparib PK parameters were estimated and for whom evaluable PD results were available represented the PK population and the PD population, respectively. The efficacy-evaluable population included patients in the safety analysis set who had at least one evaluable postbaseline tumour assessment or those who discontinued due to clinical disease progression or early death before tumour assessment could be performed. The EOC efficacy-evaluable population was a subset of the overall efficacy-evaluable population that included patients with EOC from both the dose-escalation and dose-expansion phases. Patients in the dose-expansion phase without measurable disease at baseline per RECIST v1.1 were excluded from the efficacy-evaluable population.
Descriptive statistics were used to summarise all study data (see Supplemental Appendix). Progression-free survival (PFS) and event-free rates were estimated using the Kaplan–Meier method along with the corresponding 95% CI. Pharmacokinetic parameters were derived using standard non-compartmental methods with Phoenix WinNonlin Version 6.4 or higher (Pharsight Corp., Mountain View, California).

[4] = EOC evaluable for efficacy (N=60)
[5] = EOC, Total BID Dosage Group (n=51)
[6] = EOC, Total QD Dosage Group (n=9)
[7] = Total BID dosage group, EOC efficacy-evaluable (n = 51)

## C[C@]12CCCN1CC1=NNC(=O)c3cc(F)cc4[nH]c2c1c34 [pamiparib]
[1]
  Anaemia, Grade ≥3: 27%
P-glycoprotein
  Substrate of P-glycoprotein: not a substrate
[2]
  Efficacy (tumour regression) compared with olaparib: 16 fold
[3]; [4]
  CR: 6.7%
  PR: 31.7%
[3]; EOC, Total (N=60)
  Event-free rate, 1 year: 41.0 (26.93-54.59) % (95% CI)
  Event-free rate, 2 years: 14.8 (5.46-28.41) % (95% CI)
  ORR, subgroup Age <65: 39.5 (24.98-55.59) [43/60] % (95% CI)
  ORR, subgroup Age ≥65: 35.3 (14.21-61.67) [17/60] % (95% CI)
  ORR, subgroup Baseline ECOG performance status 0: 45.8 (25.55-67.18) [24/60] % (95% CI)
  ORR, subgroup Baseline ECOG performance status ≥1: 33.3 (18.56-50.97) [36/60] % (95% CI)
  ORR, subgroup Germline BRCA status Mutant: 66.7 (40.99-86.66) [18/60] % (95% CI)
  ORR, subgroup Germline BRCA status Wild-type/Unknown: 26.2 (13.86-42.04) [42/60] % (95% CI)
  ORR, subgroup Germline or somatic BRCA status Mutant: 61.3 (42.19-78.15) [31/60] % (95% CI)
  ORR, subgroup Germline or somatic BRCA status Wild-type/Unknown: 13.8 (3.89-31.66) [29/60] % (95% CI)
  ORR, subgroup HRD status Negative/Unknown: 15.4 (4.36-34.87) [26/60] % (95% CI)
  ORR, subgroup HRD status Positive: 55.9 (37.89-72.81) [34/60] % (95% CI)
  ORR, subgroup Platinum-sensitivity status Refractory: 8.3 (0.21-38.48) [12/60] % (95% CI)
  ORR, subgroup Platinum-sensitivity status Resistant: 16.7 (4.74-37.38) [24/60] % (95% CI)
  ORR, subgroup Platinum-sensitivity status Sensitive: 75.0 (53.29-90.23) [24/60] % (95% CI)
  ORR, subgroup Solid tumor stage 3: 45.5 (28.11-63.65) [33/60] % (95% CI)
  ORR, subgroup Solid tumor stage 4: 26.1 (10.23-48.41) [23/60] % (95% CI)
  PFS censored: No disease progression or death: 17 (28.3) n (%)
  PFS censored: No postbaseline assessment: 2 (3.3) n (%)
  PFS censored: ≥2 consecutive missed assessments: 2 (3.3) n (%)
  PFS events: Death: 9 (15.0) n (%)
  PFS events: Disease progression: 30 (50.0) n (%)
  PFS: Censored: 21 (35.0) n (%)
  PFS: Events: 39 (65.0) n (%)
  Progression-Free Survival, Median: 8.3 (5.45-13.67) months (95% CI)
[3]; [5]
  Event-free rate, 1 year: 45.6 (29.51-60.25) % (95% CI)
  Event-free rate, 2 years: 16.4 (5.98-31.33) % (95% CI)
  ORR, subgroup Age <65: 42.1 (26.31-59.18) [38/51] % (95% CI)
  ORR, subgroup Age ≥65: 38.5 (13.86-68.42) [13/51] % (95% CI)
  ORR, subgroup Baseline ECOG performance status 0: 47.8 (26.82-69.41) [23/51] % (95% CI)
  ORR, subgroup Baseline ECOG performance status ≥1: 35.7 (18.64-55.93) [28/51] % (95% CI)
  ORR, subgroup Germline BRCA status Mutant: 73.3 (44.90-92.21) [15/51] % (95% CI)
  ORR, subgroup Germline BRCA status Wild-type/Unknown: 27.8 (14.20-45.19) [36/51] % (95% CI)
  ORR, subgroup Germline or somatic BRCA status Mutant: 64.3 (44.07-81.36) [28/51] % (95% CI)
  ORR, subgroup Germline or somatic BRCA status Wild-type/Unknown: 13.0 (2.78-33.59) [23/51] % (95% CI)
  ORR, subgroup HRD status Negative/Unknown: 14.3 (3.05-36.34) [21/51] % (95% CI)
  ORR, subgroup HRD status Positive: 60.0 (40.60-77.34) [30/51] % (95% CI)
  ORR, subgroup Platinum-sensitivity status Refractory: 9.1 (0.23-41.28) [11/51] % (95% CI)
  ORR, subgroup Platinum-sensitivity status Resistant: 21.1 (6.05-45.57) [19/51] % (95% CI)
  ORR, subgroup Platinum-sensitivity status Sensitive: 76.2 (52.83-91.78) [21/51] % (95% CI)
  ORR, subgroup Solid tumor stage 3: 53.6 (33.87-72.49) [28/51] % (95% CI)
  ORR, subgroup Solid tumor stage 4: 23.8 (8.22-47.17) [21/51] % (95% CI)
  PFS censored: No disease progression or death: 15 (29.4) n (%)
  PFS censored: No postbaseline assessment: 2 (3.9) n (%)
  PFS censored: ≥2 consecutive missed assessments: 2 (3.9) n (%)
  PFS events: Death: 6 (11.8) n (%)
  PFS events: Disease progression: 26 (51.0) n (%)
  PFS: Censored: 19 (37.3) n (%)
  PFS: Events: 32 (62.7) n (%)
  Progression-Free Survival, Median: 9.9 (5.49-14.62) months (95% CI)
[3]; EOC, Total BID and QD (N=60)
  Best overall response: Complete response: 4 (6.7) n (%)
  Best overall response: Not assessed: 3 (5.0) n (%)
  Best overall response: Not evaluable: 2 (3.3) n (%)
  Best overall response: Partial response: 19 (31.7) n (%)
  Best overall response: Progressive disease: 2 (3.3) n (%)
  Best overall response: Stable disease: 30 (50.0) n (%)
  Clinical benefit rate: 51.7 (38.39-64.77) % (95% CI)
  Disease control rate: 88.3 (77.43-95.18) % (95% CI)
  Objective response rate: 38.3 (26.07-51.79) % (95% CI)
[3]; [6]
  Best overall response: Complete response: 0 (0) n (%)
  Best overall response: Not assessed: 0 (0) n (%)
  Best overall response: Not evaluable: 1 (11.1) n (%)
  Best overall response: Partial response: 2 (22.2) n (%)
  Best overall response: Progressive disease: 0 (0) n (%)
  Best overall response: Stable disease: 6 (66.7) n (%)
  Clinical benefit rate: 33.3 (7.49-70.07) % (95% CI)
  Disease control rate: 88.9 (51.75-99.72) % (95% CI)
  ORR, subgroup Age <65: 20.0 (0.51-71.64) [5/9] % (95% CI)
  ORR, subgroup Age ≥65: 25.0 (0.63-80.59) [4/9] % (95% CI)
  ORR, subgroup Baseline ECOG performance status 0: 0.0 (0.00-97.50) [1/9] % (95% CI)
  ORR, subgroup Baseline ECOG performance status ≥1: 25.0 (3.19-65.09) [8/9] % (95% CI)
  ORR, subgroup Germline BRCA status Mutant: 33.3 (0.84-90.57) [3/9] % (95% CI)
  ORR, subgroup Germline BRCA status Wild-type/Unknown: 16.7 (0.42-64.12) [6/9] % (95% CI)
  ORR, subgroup Germline or somatic BRCA status Mutant: 33.3 (0.84-90.57) [3/9] % (95% CI)
  ORR, subgroup Germline or somatic BRCA status Wild-type/Unknown: 16.7 (0.42-64.12) [6/9] % (95% CI)
  ORR, subgroup HRD status Negative/Unknown: 20.0 (0.51-71.64) [5/9] % (95% CI)
  ORR, subgroup HRD status Positive: 25.0 (0.63-80.59) [4/9] % (95% CI)
  ORR, subgroup Platinum-sensitivity status Sensitive: 66.7 (9.43-99.16) [3/9] % (95% CI)
  ORR, subgroup Solid tumor stage 3: 0.0 (0.00-52.18) [5/9] % (95% CI)
  ORR, subgroup Solid tumor stage 4: 50.0 (1.26-98.74) [2/9] % (95% CI)
  Objective response rate: 22.2 (2.81-60.01) % (95% CI)
  PFS censored: No disease progression or death: 2 (22.2) n (%)
  PFS censored: No postbaseline assessment: 0 (0) n (%)
  PFS censored: ≥2 consecutive missed assessments: 0 (0) n (%)
  PFS events: Death: 3 (33.3) n (%)
  PFS events: Disease progression: 4 (44.4) n (%)
  PFS: Censored: 2 (22.2) n (%)
  PFS: Events: 7 (77.8) n (%)
  Progression-Free Survival, Median: 4.9 (1.84-NE) months (95% CI)
[3]; [7]
  Best overall response: Complete response: 4 (7.8) n (%)
  Best overall response: Not assessed: 3 (5.9) n (%)
  Best overall response: Not evaluable: 1 (2.0) n (%)
  Best overall response: Partial response: 17 (33.3) n (%)
  Best overall response: Progressive disease: 2 (3.9) n (%)
  Best overall response: Stable disease: 24 (47.1) n (%)
  Clinical benefit rate: 54.9 (40.3–68.9) % (95% CI) and 54.9 (40.34-68.87) % (95% CI)
  Disease control rate: 88.2 (76.1–95.6) % (95% CI) and 88.2 (76.13-95.56) % (95% CI)
  Objective response rate: 41.2 (27.6–55.8) % (95% CI) and 41.2 (27.58-55.83) % (95% CI)
